Results as given in US20060002946A1, “Targeted immunogens” (Aventis Pasteur, Inc., priority 2003, published 2006).

Assays:
[1] = test system: HLA-A2/K^b transgenic mice; settings: 100 μg s.c. plus T-helper peptide, no adjuvant, boosts days 14 and 28
From the text: Mice were similarly boosted on days 14 and 28. On day 42, splenocytes (2 mice per group) were individually restimulated in vitro for 6 days with the appropriate wild type peptide, and then tested for either IFN-γ secretion by ELISPOT (FIG. 3A) or CTL assay (FIG. 3B) using peptide-pulsed C1R-A2 cells. On day 57, the remaining mice in each group were similarly tested. Average responses from each group are shown.

[2] = test system: HLA-A2/Kb transgenic mice; test: s.c. peptide immunization, gp100-154 CTL chromium release (FIG. 5); settings: 50 ug s.c., boosts days 21 and 42, day 63
Experimental: CTL responses in HLA-A2/Kb transgenic mice following subcutaneous (s.c.) injection of peptide. Mice were immunized s.c. with 50 ug of the indicated peptides and boosted on days 21 and 42 following the first injection. Splenocytes from immunized animals were harvested on day 63 post immunization, re-stimulated with the native gp100-154 peptide for 5 days, and tested for CTL activity in a standard chromium release assay using target cells pulsed with gp100-154 peptide.
Furthermore, CTL responses were assessed in HLA-A2/K^b transgenic mice (Sherman strain) following s.c. immunization with gp100-154 peptide alone, conjugated to hPER1 or AntpHD with or without linker FVYVW. Mice were boosted on days 21 and 42 and splenocytes from vaccinated animals were harvested on day 63 and tested for CTL activity after 5 days of restimulation in vitro.

[3] = test system: HLA-A2/K^b transgenic mice; test: s.c. immunization without adjuvant, CTL assay (FIG. 3B); format: in vivo, mouse; settings: 100 μg s.c. plus T-helper peptide, no adjuvant, boosts days 14 and 28
From the text: Mice were similarly boosted on days 14 and 28. […] Average responses from each group are shown.

In the case of “GRRHHRRSKAKRSRKTWGQYWQV [hPER1, no linker, gp100-154]”, the “154-specific IFN-γ responses (ELISPOT)” value [1] is reported as “can be induced”, the “CTL responses against gp100-154” value [2] is reported as “a weak response was observed” and the “peptide-specific CTL responses” value [3] is reported as “can be induced”.
